Like-named read-outs stand apart in the source and are kept apart here.
Experiments:
Experiment in all cases: Post-emergence action, greenhouse pot test, visual scoring
Format in all cases: in vivo
[1] = system: Lolium multiflorum (LOLMU); conditions: read-out: % activity found; for inhibition at 30 g/ha: 30 g of ai/ha; for inhibition at 10 g/ha: 10 g of ai/ha
Experimental: (§1) Seeds or rhizome pieces of mono- and dicotyledonous harmful and useful plants were placed in peat pots (diameter 4 cm) filled with sandy loam and then covered with soil. The pots were kept in a greenhouse under optimum conditions. In addition, harmful plants encountered in paddy rice cultivation were cultivated in pots with a water level 2 cm above the soil surface.
(§2) About three weeks after the start of the cultivation, the test plants were treated at the 2- to 3-leaf stage. The herbicides, formulated as powder or liquid concentrates, were, either alone or in the combinations according to the invention, sprayed in various dosages on to the green parts of the plants using an application rate of 600 l of water/ha (converted). For further cultivation of the plants, the pots were then again kept under optimum conditions in a greenhouse.
(§3) The visual scoring of the herbicidal effects was carried out in intervals up to 21 days after the treatment. Scoring was carried out in percent in comparison to the untreated control plants. 0%=no herbicidal activity, 100%=complete herbicidal activity=complete kill.
(§4) The percentages from the treatments with the herbicides alone (=individual application) and with the combinations according to the invention (=mixtures) were employed to calculate interactions using the method of Colby. When the observed efficacies of the mixtures exceed the formal sum of the values of the tests with individual applications, they also exceed the expected value according to Colby, which is calculated using the formula below (cf. S. R. Colby; in Weeds 15 (1967) pp. 20 to 22):
(§5) • A, B=activity of components A and B in percent at a dosage of a and b g of ai/ha (=gramm of active substance per hectare), respectively. • E=expected value in % at a dosage of a+b g of ai/ha.

[2] = system: Matricaria inodora (MATIN); conditions: Tripleurospermum inodorum, read-out: % activity found; for inhibition at 30 g/ha / inhibition at 10 g/ha: MATIN; for inhibition at 30 g/ha: 30 g of ai/ha; for inhibition at 10 g/ha: 10 g of ai/ha
Experimental: as §1, §2, §3, §4, §5

Oryza sativa (ORYSA) = conditions: read-out: % activity found
Experimental: as §1, §2, §3, §4, §5

[3] = system: Triticum aestivum (TRZAS); conditions: read-out: % activity found; for inhibition at 30 g/ha: 30 g of ai/ha
Experimental: as §1, §2, §3, §4, §5

[4] = system: Alopecurus myosuroides (ALOMY); conditions: 504 h, read-out: % activity found
Experimental: as §1, §2, §3, §4, §5

Avena fatua (AVEFA) = conditions: read-out: % activity found
Experimental: as §1, §2, §3, §4, §5

[5] = system: Cyperus esculentus (CYPES); conditions: for (7) % activity found: CYPES, 21 DAT
Experimental: as §1, §2, §3, §4, §5

Viola tricolor (VIOTR) = conditions: read-out: % activity found; for inhibition at 10 g/ha / inhibition at 30 g/ha: VIOTR; for inhibition at 10 g/ha: 10 g of ai/ha; for inhibition at 30 g/ha: 30 g of ai/ha
Experimental: as §1, §2, §3, §4, §5

Zea mays (ZEAMX) = conditions: read-out: % activity found; for inhibition at 10 g/ha: 10 g of ai/ha
Experimental: as §1, §2, §3, §4, §5

[6] = system: Abuthilon theophrasti (ABUTH); conditions: Abutilon theophrasti, read-out: % activity found; for inhibition at 10 g/ha / inhibition at 30 g/ha: ABUTH; for inhibition at 10 g/ha: 10 g of ai/ha; for inhibition at 30 g/ha: 30 g of ai/ha
Experimental: as §1, §2, §3, §4, §5

[7] = system: Amaranthus retroflexus (AMARE); conditions: read-out: % activity found; for inhibition at 10 g/ha / inhibition at 30 g/ha: AMARE; for inhibition at 10 g/ha: 10 g of ai/ha; for inhibition at 30 g/ha: 30 g of ai/ha
Experimental: as §1, §2, §3, §4, §5

[8] = system: Fallopia (ex Polygonum) convolvulus (POLCO); conditions: read-out: % activity found
Experimental: as §1, §2, §3, §4, §5

[9] = system: Pharbitis purpurea (PHBPU); conditions: Ipomoea purpurea, read-out: % activity found; for inhibition at 10 g/ha / inhibition at 30 g/ha: PHBPU; for inhibition at 10 g/ha: 10 g of ai/ha; for inhibition at 30 g/ha: 30 g of ai/ha
Experimental: as §1, §2, §3, §4, §5

Veronica persica (VERPE) = conditions: read-out: % activity found; for inhibition at 10 g/ha: 10 g of ai/ha
Experimental: as §1, §2, §3, §4, §5

[10] = Cyperus esculentus, 504 h, read-out: % activity found

`CCOC(=O)C(C)OC(=O)c1cc(Oc2ccc(C(F)(F)F)cc2Cl)ccc1[N+](=O)[O-]` (racemic) [B1-5, (±)-2-ethoxy-1-methyl-2-oxoethyl 5-[2-chloro-4-(trifluoromethyl)phenoxy]-2-nitrobenzoate] showed an inhibition at 30 g/ha ([1]; 504 h, 21 DAT) of 20%, an inhibition at 30 g/ha ([2]; 504 h, 21 DAT) of 80% and an inhibition at 30 g/ha (Oryza sativa (ORYSA); 240 h, ORYSA, 10 DAT, 30 g of ai/ha) of 40%. The inhibition at 30 g/ha ([3]; 504 h, TRZAS, 21 DAT) was 20%.
With `O=C(O)COc1ccc(Cl)cc1Cl` [B5-2, (2,4-dichlorophenoxy)acetic acid] the inhibition at 70 g/ha [4] was 0%, the inhibition at 210 g/ha [4] was 0% and the inhibition at 70 g/ha (Avena fatua (AVEFA); 504 h) was 0%. It also gave an inhibition at 210 g/ha (Avena fatua (AVEFA); 504 h) of 0%, an inhibition at 70 g/ha [5, 10] of 0% and an inhibition at 210 g/ha ([3]; 240 h) of 0%. The inhibition at 210 g/ha (Viola tricolor (VIOTR); 504 h) was 60%, the inhibition at 70 g/ha (Zea mays (ZEAMX); 240 h) was 0% and the inhibition at 210 g/ha (Zea mays (ZEAMX); 240 h) was 40%. It also gave an inhibition at 70 g/ha (Zea mays (ZEAMX); 504 h) of 0%.
Work on `C[C@@H](Oc1ccc(Oc2ccc(C#N)cc2F)cc1)C(=O)O` [B7-2, (2R)-2-[4-(4-cyano-2-fluorophenoxy)phenoxy]propanoic acid] yielded an inhibition at 25 g/ha ([6]; 504 h) of 0%, an inhibition at 75 g/ha ([6]; 504 h) of 0% and an inhibition at 25 g/ha [4] of 0%. For the same compound, the inhibition at 75 g/ha [4] was 20%, the inhibition at 25 g/ha ([7]; 240 h) was 0% and the inhibition at 25 g/ha ([7]; 504 h) was 0%. The inhibition at 75 g/ha ([7]; 504 h) was 0%, the inhibition at 25 g/ha (Avena fatua (AVEFA); 504 h) was 0% and the inhibition at 25 g/ha [5, 10] was 0%. For the same compound, the inhibition at 75 g/ha [5, 10] was 0%, the inhibition at 25 g/ha ([8]; 240 h) was 0% and the inhibition at 75 g/ha ([8]; 240 h) was 0%. The inhibition at 25 g/ha ([8]; 504 h) was 0%, the inhibition at 75 g/ha ([8]; 504 h) was 0% and the inhibition at 25 g/ha ([2]; 504 h) was 0%. It also gave an inhibition at 75 g/ha ([2]; 504 h) of 0%, an inhibition at 25 g/ha (Oryza sativa (ORYSA); 504 h) of 10% and an inhibition at 75 g/ha (Oryza sativa (ORYSA); 504 h) of 20%. It also gave an inhibition at 25 g/ha ([9]; 240 h) of 0%, an inhibition at 75 g/ha ([9]; 240 h) of 20% and an inhibition at 25 g/ha ([9]; 504 h) of 0%. For the same compound, the inhibition at 75 g/ha ([9]; 504 h) was 0%, the inhibition at 75 g/ha (Veronica persica (VERPE); 240 h) was 0% and the inhibition at 25 g/ha (Veronica persica (VERPE); 504 h) was 0%. The inhibition at 75 g/ha (Veronica persica (VERPE); 504 h) was 0%, the inhibition at 75 g/ha (Viola tricolor (VIOTR); 240 h) was 0% and the inhibition at 25 g/ha (Viola tricolor (VIOTR); 504 h) was 0%. It also gave an inhibition at 75 g/ha (Viola tricolor (VIOTR); 504 h) of 0%, an inhibition at 25 g/ha (Zea mays (ZEAMX); 240 h) of 70% and an inhibition at 25 g/ha (Zea mays (ZEAMX); 504 h) of 70%.
`C[C@@H](Oc1ccc(Oc2nc3ccc(Cl)cc3o2)cc1)C(=O)O` [B7-4, (R)-2-[4-(6-chlorobenzoxazol-2-yloxy)phenoxy]propionic acid] gave an inhibition at 10 g/ha ([6]; 240 h, 10 DAT) of 0%, an inhibition at 30 g/ha ([6]; 240 h, 10 DAT) of 0% and an inhibition at 10 g/ha ([6]; 504 h, 21 DAT) of 0%. It also gave an inhibition at 30 g/ha ([6]; 504 h, 21 DAT) of 0%, an inhibition at 10 g/ha ([4]; ALOMY, 21 DAT, 10 g of ai/ha) of 30% and an inhibition at 30 g/ha ([4]; ALOMY, 21 DAT, 30 g of ai/ha) of 30%. The inhibition at 10 g/ha ([7]; 240 h, 10 DAT) was 0%, the inhibition at 30 g/ha ([7]; 240 h, 10 DAT) was 0% and the inhibition at 10 g/ha ([7]; 504 h, 21 DAT) was 0%. It also gave an inhibition at 30 g/ha ([7]; 504 h, 21 DAT) of 0%, an inhibition at 10 g/ha (Avena fatua (AVEFA); 240 h, AVEFA, 10 DAT, 10 g of ai/ha) of 0% and an inhibition at 30 g/ha (Avena fatua (AVEFA); 504 h, AVEFA, 21 DAT, 30 g of ai/ha) of 0%. For the same compound, the “(7) % activity found” value ([5]; (6) dose of B7-4 10, alone) was 0%, the “(7) % activity found” value ([5]; (6) dose of B7-4 30, alone) was 0% and the inhibition at 10 g/ha ([8]; 504 h, POLCO, 21 DAT, 10 g of ai/ha) was 0%. The inhibition at 30 g/ha ([8]; 504 h, POLCO, 21 DAT, 30 g of ai/ha) was 0%, the inhibition at 10 g/ha ([1]; 240 h, 10 DAT) was 20% and the inhibition at 10 g/ha ([1]; 504 h, 21 DAT) was 0%. It also gave an inhibition at 30 g/ha ([1]; 504 h, 21 DAT) of 0%, an inhibition at 10 g/ha ([2]; 240 h, 10 DAT) of 0% and an inhibition at 30 g/ha ([2]; 240 h, 10 DAT) of 0%. For the same compound, the inhibition at 10 g/ha ([2]; 504 h, 21 DAT) was 0%, the inhibition at 30 g/ha ([2]; 504 h, 21 DAT) was 0% and the inhibition at 10 g/ha ([9]; 240 h, 10 DAT) was 0%. It also gave an inhibition at 30 g/ha ([9]; 240 h, 10 DAT) of 0%, an inhibition at 10 g/ha ([9]; 504 h, 21 DAT) of 0% and an inhibition at 30 g/ha ([9]; 504 h, 21 DAT) of 0%. It also gave an inhibition at 10 g/ha ([3]; 240 h, TRZAS, 10 DAT, 10 g of ai/ha) of 0%, an inhibition at 30 g/ha ([3]; 240 h, TRZAS, 10 DAT) of 0% and an inhibition at 10 g/ha (Veronica persica (VERPE); 240 h, VERPE, 10 DAT) of 0%. It also gave an inhibition at 10 g/ha (Veronica persica (VERPE); 504 h, VERPE, 21 DAT) of 0%, an inhibition at 30 g/ha (Veronica persica (VERPE); 504 h, VERPE, 21 DAT, 30 g of ai/ha) of 0% and an inhibition at 10 g/ha (Viola tricolor (VIOTR); 240 h, 10 DAT) of 0%. The inhibition at 30 g/ha (Viola tricolor (VIOTR); 240 h, 10 DAT) was 0%, the inhibition at 10 g/ha (Viola tricolor (VIOTR); 504 h, 21 DAT) was 0% and the inhibition at 30 g/ha (Viola tricolor (VIOTR); 504 h, 21 DAT) was 0%. For the same compound, the inhibition at 10 g/ha (Zea mays (ZEAMX); 240 h, ZEAMX, 10 DAT) was 30%, the inhibition at 30 g/ha (Zea mays (ZEAMX); 240 h, ZEAMX, 10 DAT, 30 g of ai/ha) was 70% and the inhibition at 10 g/ha (Zea mays (ZEAMX); 504 h, ZEAMX, 21 DAT) was 20%.

From patent US20100075854A1, “HERBICIDE COMBINATION COMPRISING DIMETHOSXYTRIAZINYL-SUBSTITUTED DIFLUOROMETHANESULFONYLANILIDES” (Bayer CropScience AG, priority 2008, published 2010)
